# From patent US9539298B2, “Lissencephaly therapeutic agent” (OSAKA CITY UNIVERSITY, priority 2010, dated 2017)
# Non-standard residues stand in square brackets, D forms with d. Residues, ends and D or L forms follow the SMILES beside them. Nle = CCCC[CH](N)C(=O)O
# Tests used:
# [1] = system: nerve cells from cerebellums of FVB mice; assay: Analysis of toxicity of calpain inhibitors on cultured cerebellar nerve cells; format: cell-based, mouse; conditions: 50 μM, 16 hours, FIG. 24
# Protocol: The cerebellums were removed from 4- to 5-day-old FVB mice (15 mice). In a Ca^2+-free Hank's Balanced Salt Solution (CF-HBSS; Ca^2+, Mg^2+-free Hank's Balanced Salt Solution (CMF-HBBS, Sigma) containing 5 mM magnesium chloride (MgCl2, Wako) and 4 mg/mL glucose (Wako)), the meninges were removed and cut into pieces. After the cerebellum fragments were washed with CF-HBSS, the fragments were allowed to stand for 20 minutes at 37° C. in CF-HBSS containing 0.025% trypsin (Invitrogen) and 6.25 μg/mL deoxyribonuclease (DNase, Sigma), and then centrifuged. The resulting tissues were washed with 10% HS/BME (DNase Medium; obtained by adding 5 mM MgCl2 and 25 μg/mL DNase to Basal Medium Eagle (BME, Invitrogen) containing 10% Horse Serum (HS, Invitrogen)) and centrifuged. DNase medium was added to the cells, and the cells were transferred to a 24-well plate (Nunc). The cells were kept still for 30 minutes at 37′C under an atmospheric environment of 5% CO2, thereby suspending the cells. The cell suspension was isolated, and then washed with 10% HS/BME. The suspension was transferred again to a 24-well plate to be cultured for 16 hours at 37° C. under an atmospheric environment of 5% CO2. The cells were collected to BME containing 1% Bovine Serum Albumin (BSA, Sigma) and 0.5% N2 supplement (Invitrogen), and the cell suspension was seeded on a 35 mm glass base dish (Iwaki) coated beforehand with poly-L-lysine (Sigma) and laminin (Sigma) in an amount of […]. The cells were cultured for 8 hours at 37° C. under an atmospheric environment of 5% CO2. The cultured nerve cells were used as test nerve cells.
# A culture solution (10% HS/BME) containing SNJ-1945, E64d, or ALLN was prepared in the following manner. SNJ-1945 dissolved in dimethyl sulfoxide (Sigma, D-5879) was mixed with a culture solution so that the final concentration became 200 μM, and was kept still for an hour at 37° C., thereby completely dissolving SNJ-1945 in the culture medium. ALLN and E64d were also dissolved in culture media in the same manner, except that ALLN and E64d were added to the culture media to final concentrations of 50 μM and 100 μM, respectively. The culture media in which the components were dissolved were added to the test nerve cells prepared above in an amount of 2 ml/well, and the cells were cultured for 16 hours. As a control, the same culture was conducted using a culture medium containing the same amount of dimethyl sulfoxide (Sigma, D-5879). After culture, the cells were observed using an inverted microscope (TCS FP5S, Leica). A 20× objective lens was used. Images were taken using dedicated software (LAS AF, Leica) under the condition of 512×512 pixels.
# [2] = system: cells with LIS1 gene heterozygous mutation (Lis1+/−); conditions: Lis1+/− cells treated with ALLN, NPL 1; cited from earlier work
compound,measurement,setting,value
"CCCCC(C=O)NC(=O)C(CC(C)C)NC(=O)C(CC(C)C)NC(C)=O (stereo not drawn) [ALLN, N-Acetyl-Leu-Leu-Nle-CHO] (Ac-Leu-Leu-[Nle]-aldehyde; configuration not given here)",neurite elongation and cell migration (cytotoxicity),[1],"the cells were roundly aggregated, neurite elongation was hardly observed, the cells remained accumulated in the center, and migration was hardly observed"
same,LIS1 protein expression,[2],increased LIS1 protein expression
same,neuronal migration,[2],restored neuronal migration
